Where two headings read alike, the source gives them in different places. Positions of bridges follow the written chain, without caps; N, C: chain ends. Non-standard residues stand in square brackets, D forms with d. Residues, ends and D or L forms follow the SMILES beside them. Trp(1-Me) = Cn1cc(C[C@H](N)C(=O)O)c2ccccc21; 2Nal = N[C@@H](Cc1ccc2ccccc2c1)C(=O)O; Sar = CNCC(=O)O
How the values were obtained:
[1] = Solubility test at 10 mg/mL (visual inspection and light scattering); assay type: physicochemical; details: for Solubility, Condition 1: Acetate pH 4; for Solubility, Condition 2: Acetate pH 5; for Solubility, Condition 3: Phosphate pH 6; for Solubility, Condition 4: Phosphate pH 7; for Solubility, Condition 5: Phosphate pH 7.5
[2] = test system: classical complement pathway; test: In vitro haemolysis assay (inhibition of classical complement pathway); assay type: cell-based, human; details: human serum, sensitized sheep red blood cells
In short: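 Compound dilutions preincubated 15 min at room temperature with diluted human serum (titrated per batch for 70-90% maximal haemolysis), then antibody-sensitized sheep RBC (10^7/well) added for 30 min at 37 °C in Tris/casein buffer, pH 7.4. Stopped with EDTA; haemolysis read at 405 nm; IC50 by 4PL fit.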

[3] = Table 3, given as upper bounds, read-out: IC50, inhibition of hemolysis

Row | Structure (SMILES) | Solubility, Condition 1 [1] | Solubility, Condition 2 [1] | Solubility, Condition 3 [1] | Solubility, Condition 4 [1] | Solubility, Condition 5 [1] | IC50 [2, 3] | IC50 ([2]; Table 4, valine 3 vs isoleucine 3 pairs, read-out: CP hemolysis IC50)
1 | CC[C@H](C)[C@@H]1NC(=O)[C@@H](NC(=O)[C@H](Cc2ccccc2)NC(=O)[C@H](C)NC(=O)[C@H](CO)NC(=O)CNC(=O)[C@H](CCC(=O)O)NC(C)=O)CSSC[C@@H](C(=O)N[C@H](C(=O)N[C@@H](CCC(=O)O)C(N)=O)[C@@H](C)O)NC(=O)[C@H](CCCNC(=N)N)NC(=O)[C@H](Cc2c[nH]cn2)NC(=O)[C@H](CCC(=O)O)NC(=O)CNC(=O)[C@H](Cc2c[nH]c3ccccc23)NC(=O)[C@H](CC(=O)O)NC(=O)[C@H](CCC(N)=O)NC(=O)[C@H](Cc2ccc3ccccc3c2)NC1=O [Compound 60] (Ac-EGSAFCI[2Nal]QDWGEHRCTE-NH2; disulfide 6-16) | − (“−” denotes lack of solubility at the given condition, as UV absorbance at 340 nm exceeds 0.1 AU and/or it is visibly turbid or contains particles) | − (“−” denotes lack of solubility at the given condition, as UV absorbance at 340 nm exceeds 0.1 AU and/or it is visibly turbid or contains particles) | + (“+” denotes solubility at the given condition, as determined by UV absorbance being less than 0.1 AU at 340 nm and the sample being clear when manually inspected) | + (“+” denotes solubility at the given condition, as determined by UV absorbance being less than 0.1 AU at 340 nm and the sample being clear when manually inspected) | + (“+” denotes solubility at the given condition, as determined by UV absorbance being less than 0.1 AU at 340 nm and the sample being clear when manually inspected) | < 100 nM | –
2 | CC[C@H](C)[C@@H]1NC(=O)[C@@H](NC(=O)[C@H](Cc2ccccc2)NC(=O)[C@H](CCC(=O)O)NC(=O)[C@H](CO)NC(C)=O)CSSC[C@@H](C(=O)N[C@H](C(=O)N[C@@H](CCC(=O)O)C(=O)N[C@@H](C)C(N)=O)[C@@H](C)O)NC(=O)[C@H](CCCNC(=N)N)NC(=O)[C@H](Cc2c[nH]cn2)NC(=O)[C@H](CCC(=O)O)NC(=O)CN(C)C(=O)[C@H](Cc2c[nH]c3ccccc23)NC(=O)[C@H](CC(=O)O)NC(=O)[C@H](CCC(N)=O)NC(=O)[C@H](Cc2cn(C)c3ccccc23)NC1=O [Compound 77, Ac-SEFC(1)I[1-Me-Trp]QDW[Sar]EHRC(1)TEA-NH2] (Ac-SEFCI[Trp(1-Me)]QDW[Sar]EHRCTEA-NH2; disulfide 4-14) | − (“−” denotes lack of solubility at the given condition, as UV absorbance at 340 nm exceeds 0.1 AU and/or it is visibly turbid or contains particles) | − (“−” denotes lack of solubility at the given condition, as UV absorbance at 340 nm exceeds 0.1 AU and/or it is visibly turbid or contains particles) | + (“+” denotes solubility at the given condition, as determined by UV absorbance being less than 0.1 AU at 340 nm and the sample being clear when manually inspected) | + (“+” denotes solubility at the given condition, as determined by UV absorbance being less than 0.1 AU at 340 nm and the sample being clear when manually inspected) | + (“+” denotes solubility at the given condition, as determined by UV absorbance being less than 0.1 AU at 340 nm and the sample being clear when manually inspected) | < 100 nM | –
3 | CC[C@H](C)[C@@H]1NC(=O)[C@@H](NC(=O)[C@H](Cc2ccc(O)cc2)NC(C)=O)CSSC[C@@H](C(=O)N[C@H](C(=O)NCC(=O)N[C@@H](C)C(=O)N[C@@H](CCC(=O)O)C(=O)N[C@@H](CO)C(N)=O)[C@@H](C)O)NC(=O)[C@H](CCCNC(=N)N)NC(=O)[C@H](Cc2c[nH]cn2)NC(=O)[C@H](CCC(=O)O)NC(=O)CNC(=O)[C@H](Cc2c[nH]c3ccccc23)NC(=O)[C@H](CC(=O)O)NC(=O)[C@H](CCC(N)=O)NC(=O)[C@H](Cc2c[nH]c3ccccc23)NC1=O [Compound 66] (Ac-YCIWQDWGEHRCTGAES-NH2; disulfide 2-12) | − (“−” denotes lack of solubility at the given condition, as UV absorbance at 340 nm exceeds 0.1 AU and/or it is visibly turbid or contains particles) | − (“−” denotes lack of solubility at the given condition, as UV absorbance at 340 nm exceeds 0.1 AU and/or it is visibly turbid or contains particles) | + (“+” denotes solubility at the given condition, as determined by UV absorbance being less than 0.1 AU at 340 nm and the sample being clear when manually inspected) | + (“+” denotes solubility at the given condition, as determined by UV absorbance being less than 0.1 AU at 340 nm and the sample being clear when manually inspected) | + (“+” denotes solubility at the given condition, as determined by UV absorbance being less than 0.1 AU at 340 nm and the sample being clear when manually inspected) | < 100 nM | –
4 | CC[C@H](C)[C@H](NC(C)=O)C(=O)N[C@H]1CSSC[C@@H](C(=O)N[C@H](C(=O)NCC(=O)N[C@@H](C)C(=O)N[C@@H](CCC(=O)O)C(=O)N[C@@H](CO)C(N)=O)[C@@H](C)O)NC(=O)[C@H](CCCNC(=N)N)NC(=O)[C@H](Cc2c[nH]cn2)NC(=O)[C@H](CCC(=O)O)NC(=O)CNC(=O)[C@H](Cc2c[nH]c3ccccc23)NC(=O)[C@H](CC(=O)O)NC(=O)[C@H](CCC(N)=O)NC(=O)[C@H](Cc2c[nH]c3ccccc23)NC(=O)[C@H]([C@@H](C)CC)NC1=O [Compound 15] (Ac-ICIWQDWGEHRCTGAES-NH2; disulfide 2-12) | + (“+” denotes solubility at the given condition, as determined by UV absorbance being less than 0.1 AU at 340 nm and the sample being clear when manually inspected) | − (“−” denotes lack of solubility at the given condition, as UV absorbance at 340 nm exceeds 0.1 AU and/or it is visibly turbid or contains particles) | − (“−” denotes lack of solubility at the given condition, as UV absorbance at 340 nm exceeds 0.1 AU and/or it is visibly turbid or contains particles) | + (“+” denotes solubility at the given condition, as determined by UV absorbance being less than 0.1 AU at 340 nm and the sample being clear when manually inspected) | + (“+” denotes solubility at the given condition, as determined by UV absorbance being less than 0.1 AU at 340 nm and the sample being clear when manually inspected) | < 100 nM | 47 nM
5 | CC[C@H](C)[C@H](NC(=O)[C@H](C)NC(=O)[C@H](CO)NC(=O)CNC(=O)[C@H](CCC(=O)O)NC(C)=O)C(=O)N[C@H]1CSSC[C@@H](C(=O)N(C)CC(=O)N[C@@H](CCC(=O)O)C(N)=O)NC(=O)[C@H](CCCNC(=N)N)NC(=O)[C@H](Cc2c[nH]cn2)NC(=O)[C@H](CCC(=O)O)NC(=O)CNC(=O)[C@H](Cc2c[nH]c3ccccc23)NC(=O)[C@H](CC(=O)O)NC(=O)[C@H](CCC(N)=O)NC(=O)[C@H](Cc2ccc3ccccc3c2)NC(=O)[C@H]([C@@H](C)CC)NC1=O [Compound 50] (Ac-EGSAICI[2Nal]QDWGEHRC[Sar]E-NH2; disulfide 6-16) | − (“−” denotes lack of solubility at the given condition, as UV absorbance at 340 nm exceeds 0.1 AU and/or it is visibly turbid or contains particles) | − (“−” denotes lack of solubility at the given condition, as UV absorbance at 340 nm exceeds 0.1 AU and/or it is visibly turbid or contains particles) | + (“+” denotes solubility at the given condition, as determined by UV absorbance being less than 0.1 AU at 340 nm and the sample being clear when manually inspected) | + (“+” denotes solubility at the given condition, as determined by UV absorbance being less than 0.1 AU at 340 nm and the sample being clear when manually inspected) | + (“+” denotes solubility at the given condition, as determined by UV absorbance being less than 0.1 AU at 340 nm and the sample being clear when manually inspected) | < 100 nM | –
6 | CC[C@H](C)[C@@H]1NC(=O)[C@@H](NC(=O)[C@@H](NC(=O)[C@H](CCC(=O)O)NC(=O)CNC(=O)[C@H](CCC(=O)O)NC(C)=O)[C@@H](C)CC)CSSC[C@@H](C(=O)N[C@H](C(N)=O)[C@@H](C)O)NC(=O)[C@H](CCCNC(=N)N)NC(=O)[C@H](Cc2c[nH]cn2)NC(=O)[C@H](CCC(=O)O)NC(=O)CNC(=O)[C@H](Cc2c[nH]c3ccccc23)NC(=O)[C@H](CC(=O)O)NC(=O)[C@H](CCC(N)=O)NC(=O)[C@H](Cc2c[nH]c3ccccc23)NC1=O [Compound 30] (Ac-EGEICIWQDWGEHRCT-NH2; disulfide 5-15) | − (“−” denotes lack of solubility at the given condition, as UV absorbance at 340 nm exceeds 0.1 AU and/or it is visibly turbid or contains particles) | − (“−” denotes lack of solubility at the given condition, as UV absorbance at 340 nm exceeds 0.1 AU and/or it is visibly turbid or contains particles) | – | + (“+” denotes solubility at the given condition, as determined by UV absorbance being less than 0.1 AU at 340 nm and the sample being clear when manually inspected) | + (“+” denotes solubility at the given condition, as determined by UV absorbance being less than 0.1 AU at 340 nm and the sample being clear when manually inspected) | < 100 nM | –

From patent publication US11965039B2, “Compstatin analogues and their medical uses” (priority 2018, dated 2024)
